Measured values reported in patent US11839210B1, “Plant growth promoter with strigolactones regulation activities” (King Abdullah University of Science and Technology, priority 2017, dated 2023).

Legend:
Zaxinone Synthase (ZAS) = assay: qRT-PCR of ZAS transcript levels in rice after zaxinone or GR24; format: in vivo, rice (Nipponbare); conditions: phosphate starvation, 5 μM, 6 h
Method: (§1) Total RNA was extracted from the roots and shoots using a Qiagen Plant RNeasy Kit according to the manufacturer's instruction. cDNA was synthesized from 1 μg of total RNA using iScript cDNA Synthesis Kit (BIO-RAD Laboratories, Inc, 2000 Alfred Nobel Drive, Hercules, CA, Cat. No #170-8890) according to instructions in the user manual. For mycorrhizal samples, single-strand cDNA was synthesized from 1 μg of total RNA using Super-Script II (Invitrogen) according to instructions in the user manual. Primers used for real-time quantitative RT-PCR (qRT-PCR) analysis are listed below in Table 3. qRT-PCR was performed using SYBR Green Master Mix (Applied Biosystems; www.lifetechnologies.com) in a StepOnePlus (Life Technologies, Carlsbad, CA, USA). For mycorrhizal samples, qRT-PCR was performed using a Rotor-Gene Q 5plex HRM Platform (Qiagen). The 2-ΔCt method was used to calculate the relative gene expression levels and rice Ubiquitin (OsUBQ or OsRubQ1) gene was used as the internal control to normalize target gene expression.
FIGS. 14A-14C show transcript levels of Zaxinone Synthase (ZAS) in wild type roots and shoots. In FIG. 14A, the relative expression levels of ZAS under normal (+Pi) and phosphate-starved (−Pi) conditions in Nipponbare wild-type (WT) roots and shoots is seen. The expression levels in the WT root were normalized to 1. In FIG. 14B, the relative expression levels of ZAS under −Pi conditions with 5 μM of Zaxinone and GR24 treatment in WT rice root and shoot is seen. Three weeks-old seedlings were transferred to new hydroponic pots containing fresh media with or without chemicals for 6 h. The expression levels in the WT-mock were normalized to 1 and the expression levels were detected by qRT-PCR. Ubiquitin was used as a reference gene. Bars represent mean±SD (n=3). Mock treatment (0.1% acetone). Different letters above each bar denote significant difference following a One-way ANOVA test (P<0.05).

D10 = assay: qRT-PCR of D10 gene expression in rice roots after zaxinone treatment; format: in vivo, rice (Oryza sativa Nipponbare); conditions: −Pi, 6 h
Method: (§2) For the analysis of SL transcript levels in the zas mutant, one week-old seedlings were grown hydroponically in half-strength modified Hoagland nutrient solution with K2HPO4·2H2O (+Pi) and without K2HPO4·2H2O (−Pi) for 7 days. Seedlings were further treated with zaxinone for 6 h and tissues were collected.
as §1
14-day-old rice seedlings were transferred to new hydroponic pots containing fresh media with or without chemicals for 6 hours. SL biosynthetic (D27, D10, D17 and MAX1-Os900) gene expression were determined under −Pi conditions (phosphate deficient) with zaxinone (2.5 and 5 μM) treatment of both Nipponbare wild-type (WT) rice roots and zas mutant rice roots. The expression levels (1301) were detected by quantitative RT-PCR. Ubiquitin was used as a reference gene. Mock treatment (control) treatment consisted of 0.1% acetone. Bars (1302) show comparisons between the treatments and represent mean±SD (n=3). Decrease in SLs levels in the plants treated with zaxinone ranged from approximately 40% to 70%.

Striga hermonthica = Striga hermonthica infection in rice (pots with Striga infested soil); format: in vivo, Striga hermonthica on rice cv. IAC-165; conditions: 10 μM zaxinone
Method: About 10 mg (4000) of Striga seeds were thoroughly mixed in 2 L soil and sand mixture (1:1), and added to a 3 L plastic pot. The pots with Striga seeds were kept under moist conditions at 35° C. for 10 days. Five days-old three rice seedlings (Oryza sativa L. cv. IAC-165) were then planted in the middle of each pot. A stock of 10 mM of zaxinone was prepared by mixing with an emulsifier (cyclohexanone+Atlas G1086). Three days after rice planting, zaxinone was applied at 10 μM through 20 ml water in each pot. Zaxinone was applied twice a week for up-to five weeks. Striga emergences were recorded six weeks after rice planting.

[1] = tested on: wild-type and zas mutant rice plants; assay: Rescue of zas mutant phenotype, soil-grown rice in rhizotron root analysis system; format: in vivo, Oryza sativa Nipponbare; conditions: 10 μM zaxinone
Method: Three days-old seedlings were grown in soil in Hoagland nutrient solution containing K2HPO4·2H2O (+Pi) with 10 μM zaxinone treatment. The solution was changed every other day for 2 weeks, adding the chemical at each renewal. Plants grown without zaxinone served as the controls and phenotypic data were recorded. To prevent zaxinone degradation from light exposure, 1 μl/ml emulsifier was added into the Hoagland nutrient solution.

[2] = tested on: SL biosynthesis genes (D27, CCD7, CCD8 and CO); assay: qRT-PCR of transcript levels of SL biosynthesis genes (all four together) in rice roots; format: in vivo; conditions: for expression levels of D27, CCD7, CCD8 and CO: −Pi
Method: as §2, §1
Two week-old seedlings were grown for another one week in −Pi solution and then transferred to new vials containing fresh −Pi solution with and without the indicated concentrations (2.5 μM, 5 μM, 10 μM and 20 μM) of zaxinone for 6 h and samples were collected. SL biosynthetic genes expression for D27 (FIG. 19A), CCD7 […], CCD8 (FIG. 19C), and CO (Carlactone oxidase-FIG. 19D) in WT and zas mutants. […] The expression levels were detected by quantitative RT-PCR. Ubiquitin was used as a reference gene and the expression levels in the WT-mock were normalized to 1. Bars represent mean±SD (n=3). Different letters above each bar denote significant difference following a One-way ANOVA test (P<0.05).
Transcript levels of SL biosynthesis genes, D27 (FIG. 24C), CCD7/D17 (FIG. 24D), CCD8/D10 (FIG. 24E) and OsCO (Carlactone oxidase—FIG. 24F) in root tissues were collected for SL quantification. The expression levels were detected by qRT-PCR. Ubiquitin was used as a reference gene and the expression levels in the WT-mock were normalized to 1. Two week-old seedlings were grown for another one week in −Pi solution and then transferred to new vials containing fresh −Pi solution with and without 5 μM of zaxinone and GR24 for 6 h and samples were collected. Bars represent mean±SD (n=3). Different letters above each bar denote significant difference following a One-way ANOVA test (P<0.05).

CC(=O)/C=C/C=C(C)/C=C/C1=C(C)C[C@@H](O)CC1(C)C [zaxinone, 3-OH-β-apo-13-carotenone]
effect on ZAS transcript levels compared between zaxinone and GR24 (Zaxinone Synthase (ZAS); WT rice root tissues): more pronounced effect
ZAS transcript levels in root tissues (Zaxinone Synthase (ZAS); WT rice): negatively impacted
decrease of D10 relative expression vs mock (D10; WT rice roots, 2.5 μM zaxinone): approximately 75%
D10 relative expression (D10; WT rice roots, 2.5 μM zaxinone, WT mock approx. 1.0): approximately 0.25
decrease of D10 relative expression vs mock (D10; WT rice roots, 5.0 μM zaxinone): ~70%
D10 relative expression (D10; WT rice roots, 5.0 μM zaxinone, WT mock approx. 1.0): approximately 0.3
decrease of D10 relative expression vs mock (D10; zas mutant rice roots, 2.5 μM zaxinone): approximately 60%
D10 relative expression (D10; zas mutant rice roots, 2.5 μM zaxinone, zas mock approx. 2.5): approximately 1.0
decrease of D10 relative expression vs mock (D10; zas mutant rice roots, 5.0 μM zaxinone): ~68%
D10 relative expression (D10; zas mutant rice roots, 5.0 μM zaxinone, zas mock approx. 2.5): approximately 0.8
reduction of number of emerging Striga plants vs untreated control (Striga hermonthica; rice cv. IAC-165 in pots with Striga infested soil): around 80%
number of emerging Striga plants (Striga hermonthica; six-week old rice cv. IAC-165 in soil, mock around 15-25): less than 10
shoots and roots vs untreated control seedlings (visual) ([1]; wild-type seedlings): some improvement
shoots and roots vs untreated control seedlings (visual) ([1]; zas mutant seedlings): substantial improvement
increase of shoot length over untreated seedlings ([1]; zas mutant): about 10 cm
shoot biomass vs untreated ([1]; zas mutant): doubled
root surface area ([1]; zas mutant, untreated 15-20 cm^2): 25-50 cm^2
SL transcript levels in roots ([2]; Shiokari wild-type and d3 seedlings, phosphate-starved, 5 μM, 6 h): decreased
transcript levels of D27, CCD7, CCD8 and CO ([2]; WT and zas root tissues, normal phosphorus (+Pi), zaxinone 6 h): nor was there a pronounced effect
expression levels of D27, CCD7, CCD8 and CO ([2]; wild-type roots, 2.5-20 μM zaxinone, 6 h): decreased the expression levels of the wild-type to levels below the WT/Mock control level
transcript levels of D27, CCD7, CCD8 and CO ([2]; zas mutant and wild-type seedlings, phosphate starvation, 5 μM zaxinone): decreased the transcript levels
expression levels of D27, CCD7, CCD8 and CO ([2]; zas mutant roots, increased concentrations (5, 10, 20 μM) vs 2.5 μM, 6 h): Only slight decreases
expression levels of D27, CCD7, CCD8 and CO ([2]; zas mutant roots, lowest level of zaxinone (2.5 μM), 6 h): reduced the expression levels to near the WT/Mock level
relative expression of transcript levels of D27, CCD7, CCD8 and CO ([2]; zaxinone treated zas mutants (zas/Zax), phosphate starvation, 5 μM): at or near levels for the wild-type controls
